Experimental data taken from patent publication US20260241046A1, “PROSTATE-SPECIFIC MEMBRANE ANTIGEN RECEPTOR-TARGETING RADIOPHARMACEUTICALS AND USES THEREOF” (Nuclidium AG, priority 2024, published 2026).

Target: T1, PSMA-positive malignant lesions (Homo sapiens, UniProt Q04609)
T1 construct: from tissue; host or cells: prostate cancer lesions (bone and nodal metastases, prostate) of eight trial subjects
Experiment: Human clinical trial, PET/CT comparison between Pylarify and [^61Cu]Cu-NODAGA-PSMA I&T
Format: in vivo
Description: This is a phase I, single center, non-randomized trial with 6-10 subjects. Each subject will have biopsy-proven prostate cancer visualized on FDA-approved ^18F-piflufolastat PET/CT performed within 3 weeks of trial recruitment. Each subject will receive a single administration of [^61Cu]Cu-NODAGA-PSMA I&T, followed by PET/CT imaging. Safety of [^61Cu]Cu-NODAGA-PSMA I&T will be evaluated by monitoring for unlikely adverse effects.
Subjects will undergo administration of 10 mL of 100-300 MBq (2.7-8.1 mCi) [^61Cu]Cu-NODAGA-PSMA I&T composition intravenously described in Table 20, followed by PET/CT imaging 60 (+/−10) minutes post radiotracer administration.
• Perform and record vital signs. • Place IV catheter. • Obtain blood for whole blood and plasma radioactivity counts prior to radiotracer administration and at 3-5 time points post radiotracer administration, from the following time ranges • a. 15 minutes (+/−10 minutes) • b. 30 minutes (+/−10 minutes) • c. 60 minutes (+/−15 minutes) • d. 120-240 minutes • e. 240-420 minutes • Administer 100-300 MBq ([…]) of [^61Cu]Cu-NODAGA-PSMA I&T composition intravenously. • Perform and record vital signs and assess for adverse reactions 30-60 minutes and 120-240 minutes post radiotracer administration. • Perform PET/CT imaging at 2 or 3 time points post radiotracer administration, from the following time ranges. • a. 60 minutes (+/−15 minutes) • b. 120-240 minutes • c. 240-420 minutes • Perform and record vital signs and assess for adverse reactions 120 (+/−10 minutes) post radiotracer administration. Visit 3—Day after Phone Call • Record any adverse reactions.
For the secondary objective of effectiveness, the number of suspected PSMA-positive malignant lesions will be calculated in both the standard-of-care ^18F-Piflufolastat PET/CT and the experimental [^61Cu]Cu-NODAGA-PSMA I&T PET/CT. The percentage of patients with any suspected PSMA-positive malignant lesions will be determined for each radiotracer. To assess whether the distribution of the number of lesions was higher with ^18F-Piflufolastat PET/CT or [^61Cu]Cu-NODAGA-PSMA I&T, 1-sided Wilcoxon […] tests for paired data will be performed. To account for the small sample size, results with a P value of less than 0.1 will be considered statistically significant.

T1 sequence (Q04609 whole entry): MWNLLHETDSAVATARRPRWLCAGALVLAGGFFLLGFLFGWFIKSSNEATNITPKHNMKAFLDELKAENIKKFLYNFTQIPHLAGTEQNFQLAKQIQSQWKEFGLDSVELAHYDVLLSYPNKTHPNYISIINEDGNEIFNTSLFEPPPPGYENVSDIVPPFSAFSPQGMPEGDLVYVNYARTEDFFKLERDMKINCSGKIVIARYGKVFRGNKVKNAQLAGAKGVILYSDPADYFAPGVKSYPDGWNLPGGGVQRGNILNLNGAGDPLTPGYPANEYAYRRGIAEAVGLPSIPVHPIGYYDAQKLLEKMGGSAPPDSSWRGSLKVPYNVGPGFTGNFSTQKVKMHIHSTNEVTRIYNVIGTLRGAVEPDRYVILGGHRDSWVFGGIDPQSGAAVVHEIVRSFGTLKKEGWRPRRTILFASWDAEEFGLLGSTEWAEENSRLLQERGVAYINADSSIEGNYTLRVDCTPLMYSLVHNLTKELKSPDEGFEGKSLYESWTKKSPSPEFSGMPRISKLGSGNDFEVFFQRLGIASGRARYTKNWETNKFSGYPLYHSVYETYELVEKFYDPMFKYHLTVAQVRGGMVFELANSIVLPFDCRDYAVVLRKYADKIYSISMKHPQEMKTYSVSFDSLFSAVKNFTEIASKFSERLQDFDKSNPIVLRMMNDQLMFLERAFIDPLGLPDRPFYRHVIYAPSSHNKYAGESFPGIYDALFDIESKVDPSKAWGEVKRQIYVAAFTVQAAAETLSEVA

SMILES: O=C([O-])CN1CCN(CC(=O)[O-])CCN([C@H](CCC(=O)N[C@H](Cc2ccc(O)c(I)c2)C(=O)N[C@H](Cc2ccccc2)C(=O)N[C@H](CCCCNC(=O)CCCCCCC(=O)NCCCC[C@H](NC(=O)N[C@@H](CCC(=O)O)C(=O)O)C(=O)O)C(=O)O)C(=O)O)CC1.[61Cu+2] [[^61Cu]Cu-NODAGA-PSMA I&T]
- Concordance (Subject 1): 100%
- % difference from Pylarify results at 1 hour (Subject 1, 1 hour): (12%)
- New Lesions Detected with [^61Cu]Cu-NODAGA-PSMA I&T (Subject 1, 1 hour): 5
- Tumor-to-Background Ratio with [^61Cu]Cu-NODAGA-PSMA I&T (Subject 1, 1 hour): 59.9
- % difference from Pylarify results at 1 hour (Subject 1, 2 hour): (115%)
- New Lesions Detected with [^61Cu]Cu-NODAGA-PSMA I&T (Subject 1, 2 hour): 7
- Tumor-to-Background Ratio with [^61Cu]Cu-NODAGA-PSMA I&T (Subject 1, 2 hour): 114.5
- % difference from Pylarify results at 1 hour (Subject 1, 4 hour): (154%)
- New Lesions Detected with [^61Cu]Cu-NODAGA-PSMA I&T (Subject 1, 4 hour): 8
- Tumor-to-Background Ratio with [^61Cu]Cu-NODAGA-PSMA I&T (Subject 1, 4 hour): 135.5
- Concordance (Subject 2): 100%
- % difference from Pylarify results at 1 hour (Subject 2, 1 hour): (37%)
- New Lesions Detected with [^61Cu]Cu-NODAGA-PSMA I&T (Subject 2, 1 hour): 0
- Tumor-to-Background Ratio with [^61Cu]Cu-NODAGA-PSMA I&T (Subject 2, 1 hour): 5.3
- % difference from Pylarify results at 1 hour (Subject 2, 2 hour): (−13%)
- New Lesions Detected with [^61Cu]Cu-NODAGA-PSMA I&T (Subject 2, 2 hour): 0
- Tumor-to-Background Ratio with [^61Cu]Cu-NODAGA-PSMA I&T (Subject 2, 2 hour): 3.4
- % difference from Pylarify results at 1 hour (Subject 2, 4 hour): (−43%)
- New Lesions Detected with [^61Cu]Cu-NODAGA-PSMA I&T (Subject 2, 4 hour): 0
- Tumor-to-Background Ratio with [^61Cu]Cu-NODAGA-PSMA I&T (Subject 2, 4 hour): 2.2
- Concordance (Subject 3): 100%
- % difference from Pylarify results at 1 hour (Subject 3, 1 hour): (52%)
- New Lesions Detected with [^61Cu]Cu-NODAGA-PSMA I&T (Subject 3, 1 hour): 1
- Tumor-to-Background Ratio with [^61Cu]Cu-NODAGA-PSMA I&T (Subject 3, 1 hour): 9.3
- % difference from Pylarify results at 1 hour (Subject 3, 2 hour): (9%)
- New Lesions Detected with [^61Cu]Cu-NODAGA-PSMA I&T (Subject 3, 2 hour): 1
- Tumor-to-Background Ratio with [^61Cu]Cu-NODAGA-PSMA I&T (Subject 3, 2 hour): 6.7
- % difference from Pylarify results at 1 hour (Subject 3, 4 hour): (274%)
- New Lesions Detected with [^61Cu]Cu-NODAGA-PSMA I&T (Subject 3, 4 hour): 3
- Tumor-to-Background Ratio with [^61Cu]Cu-NODAGA-PSMA I&T (Subject 3, 4 hour): 23.0
- Concordance (Subject 4): 100%
- % difference from Pylarify results at 1 hour (Subject 4, 1 hour): (64%)
- New Lesions Detected with [^61Cu]Cu-NODAGA-PSMA I&T (Subject 4, 1 hour): 0
- Tumor-to-Background Ratio with [^61Cu]Cu-NODAGA-PSMA I&T (Subject 4, 1 hour): 126.2
- % difference from Pylarify results at 1 hour (Subject 4, 2 hour): (110%)
- New Lesions Detected with [^61Cu]Cu-NODAGA-PSMA I&T (Subject 4, 2 hour): 2
- Tumor-to-Background Ratio with [^61Cu]Cu-NODAGA-PSMA I&T (Subject 4, 2 hour): 161.4
- % difference from Pylarify results at 1 hour (Subject 4, 4 hour): (98%)
- New Lesions Detected with [^61Cu]Cu-NODAGA-PSMA I&T (Subject 4, 4 hour): 10
- Tumor-to-Background Ratio with [^61Cu]Cu-NODAGA-PSMA I&T (Subject 4, 4 hour): 152.8
- Concordance (Subject 5): 100%
- % difference from Pylarify results at 1 hour (Subject 5, 1 hour): (98%)
- New Lesions Detected with [^61Cu]Cu-NODAGA-PSMA I&T (Subject 5, 1 hour): 0
- Tumor-to-Background Ratio with [^61Cu]Cu-NODAGA-PSMA I&T (Subject 5, 1 hour): 53.3
- % difference from Pylarify results at 1 hour (Subject 5, 2 hour): (154%)
- New Lesions Detected with [^61Cu]Cu-NODAGA-PSMA I&T (Subject 5, 2 hour): 0
- Tumor-to-Background Ratio with [^61Cu]Cu-NODAGA-PSMA I&T (Subject 5, 2 hour): 68.3
- % difference from Pylarify results at 1 hour (Subject 5, 4 hour): (160%)
- New Lesions Detected with [^61Cu]Cu-NODAGA-PSMA I&T (Subject 5, 4 hour): 0
- Tumor-to-Background Ratio with [^61Cu]Cu-NODAGA-PSMA I&T (Subject 5, 4 hour): 70.0
- Concordance (Subject 6): 100%
- % difference from Pylarify results at 1 hour (Subject 6, 1 hour): (60%)
- New Lesions Detected with [^61Cu]Cu-NODAGA-PSMA I&T (Subject 6, 1 hour): 0
- Tumor-to-Background Ratio with [^61Cu]Cu-NODAGA-PSMA I&T (Subject 6, 1 hour): 11.3
- % difference from Pylarify results at 1 hour (Subject 6, 2 hour): (126%)
- New Lesions Detected with [^61Cu]Cu-NODAGA-PSMA I&T (Subject 6, 2 hour): 0
- Tumor-to-Background Ratio with [^61Cu]Cu-NODAGA-PSMA I&T (Subject 6, 2 hour): 16.0
- % difference from Pylarify results at 1 hour (Subject 6, 4 hour): (230%)
- New Lesions Detected with [^61Cu]Cu-NODAGA-PSMA I&T (Subject 6, 4 hour): 0
- Tumor-to-Background Ratio with [^61Cu]Cu-NODAGA-PSMA I&T (Subject 6, 4 hour): 23.3
- Concordance (Subject 7): 100%
- % difference from Pylarify results at 1 hour (Subject 7, 1 hour): (45%)
- New Lesions Detected with [^61Cu]Cu-NODAGA-PSMA I&T (Subject 7, 1 hour): 3
- Tumor-to-Background Ratio with [^61Cu]Cu-NODAGA-PSMA I&T (Subject 7, 1 hour): 5.6
- % difference from Pylarify results at 1 hour (Subject 7, 2 hour): (70%)
- New Lesions Detected with [^61Cu]Cu-NODAGA-PSMA I&T (Subject 7, 2 hour): 3
- Tumor-to-Background Ratio with [^61Cu]Cu-NODAGA-PSMA I&T (Subject 7, 2 hour): 6.6
- % difference from Pylarify results at 1 hour (Subject 7, 4 hour): (287%)
- New Lesions Detected with [^61Cu]Cu-NODAGA-PSMA I&T (Subject 7, 4 hour): 5
- Tumor-to-Background Ratio with [^61Cu]Cu-NODAGA-PSMA I&T (Subject 7, 4 hour): 15.0
- Concordance (Subject 8): 100%
- % difference from Pylarify results at 1 hour (Subject 8, 1 hour): (−10%)
- New Lesions Detected with [^61Cu]Cu-NODAGA-PSMA I&T (Subject 8, 1 hour): 0
- Tumor-to-Background Ratio with [^61Cu]Cu-NODAGA-PSMA I&T (Subject 8, 1 hour): 24.2
- % difference from Pylarify results at 1 hour (Subject 8, 2 hour): (29%)
- New Lesions Detected with [^61Cu]Cu-NODAGA-PSMA I&T (Subject 8, 2 hour): 0
- Tumor-to-Background Ratio with [^61Cu]Cu-NODAGA-PSMA I&T (Subject 8, 2 hour): 34.5
- % difference from Pylarify results at 1 hour (Subject 8, 4 hour): (123%)
- New Lesions Detected with [^61Cu]Cu-NODAGA-PSMA I&T (Subject 8, 4 hour): 0
- Tumor-to-Background Ratio with [^61Cu]Cu-NODAGA-PSMA I&T (Subject 8, 4 hour): 59.7
- metastases visualized compared with Pylarify PET/CT (Subject #1): More osseous metastases were visualized
- metastases visualized compared with Pylarify PET/CT (Subject #2): Same number of metastases were observed
- pelvic nodal metastases seen on PET/CT (Subject #3, 4 hours): 5
- metastases visualized compared with Pylarify PET/CT (Subject #4): More osseous metastases were observed
- metastases visualized compared with Pylarify PET/CT (Subject #5): Equal number of osseous metastases were observed
- metastases visualized compared with Pylarify PET/CT (Subject #6): One avid 0.4 cm left pelvic sidewall lymph node seen on both
- metastases visualized compared with Pylarify PET/CT (Subject #7): More osseous metastases were detected
- metastases visualized compared with Pylarify PET/CT (Subject #8): Solitary avid osseous metastasis were observed in both exams
- detection rate of metastatic lesions compared with Pylarify (eight subjects): higher detection rate of metastatic lesions
- higher tumor-to-background ratio than Pylarify, on average (eight subjects): 90%
